From patent US9850256B2, “Antibacterial basic biaromatic derivatives with aminoalkoxy substitution” (priority 2014, dated 2017)
In brackets after ≈: the same amount, converted by molar mass.

What was measured:
Experiment in all cases: Bacterial growth minimal inhibitory concentration (microdilution, cation-adjusted Mueller-Hinton Broth)
P. aeruginosa ATCC 27853 = assay type: cell-based, Pseudomonas aeruginosa; settings: Pseudomonas aeruginosa, ATCC27853; quinolone-sensitive strain
Procedure, shortened: (§1)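 Broth microdilution in cation-adjusted Mueller-Hinton Broth per CLSI M7-A7; MICs in mg/L. S. aureus A798 is methicillin- and quinolone-resistant, K. pneumoniae T6474 penicillin-, cephalosporin- and quinolone-resistant; E. coli ATCC25922 and P. aeruginosa ATCC 27853 are quinolone-sensitive.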

K. pneumoniae T6474 = assay type: cell-based, Klebsiella pneumoniae; settings: Klebsiella pneumoniae, T6474; multiply-resistant strain (penicillin-, cephalosporin- and quinolone-resistant)
Procedure, shortened: as §1

E. coli ATCC25922 = assay type: cell-based; settings: Escherichia coli, ATCC25922; quinolone-sensitive strain
Procedure, shortened: as §1

S. aureus A798 = assay type: cell-based, Staphylococcus aureus; settings: Staphylococcus aureus, A798; multiply-resistant strain (methicillin- and quinolone-resistant)
Procedure, shortened: as §1

| Structure (SMILES) | MIC (P. aeruginosa ATCC 27853) [µg/mL] | MIC (K. pneumoniae T6474) [µg/mL] | MIC (E. coli ATCC25922) [µg/mL] | MIC (S. aureus A798) [µg/mL] |
| --- | --- | --- | --- | --- |
| NCCN(CCN)CCOc1cccc(-c2cccc(CNCC[C@H]3CN(c4ccc5c(n4)NC(=O)CO5)C(=O)O3)c2)c1 [Example $155, 6-((S)-5-{2-[(3′-{2-[bis-(2-amino-ethyl)-amino]-ethoxy}-biphenyl-3-ylmethyl)-amino]-ethyl}-2-oxo-oxazolidin-3-yl)-4H-pyrido[3,2-b][1,4]oxazin-3-one] | 2 (≈ 3.39 µM) | 16 (≈ 27.1 µM) | 2 (≈ 3.39 µM) | 1 (≈ 1.7 µM) |
| NCCNCCOc1cccc(-c2cccc(CNCC[C@H]3CN(c4ccc5c(n4)NC(=O)CO5)C(=O)O3)c2)n1 [Example $156, 6-{(S)-5-[2-(3-{6-[2-(2-amino-ethylamino)-ethoxy]-pyridin-2-yl}-benzylamino)-ethyl]-2-oxo-oxazolidin-3-yl}-4H-pyrido[3,2-b][1,4]oxazin-3-one] | 0.5 (≈ 0.913 µM) | 2 (≈ 3.65 µM) | 1 (≈ 1.83 µM) | 1 (≈ 1.83 µM) |
| NCCOc1ccnc(-c2ccnc(CNCC[C@H]3CN(c4ccc5c(n4)NC(=O)CO5)C(=O)O3)c2)c1 [Example $157, 6-[(S)-5-(2-{[4-(2-amino-ethoxy)-[2,4′]bipyridinyl-2′-ylmethyl]-amino}-ethyl)-2-oxo-oxazolidin-3-yl]-4H-pyrido[3,2-b][1,4]oxazin-3-one] | 1 (≈ 1.98 µM) | 16 (≈ 31.6 µM) | 4 (≈ 7.91 µM) | 8 (≈ 15.8 µM) |
| NCCOc1cncc(-c2ccnc(CNCC[C@H]3CN(c4ccc5c(n4)NC(=O)CO5)C(=O)O3)c2)n1 [Example $158, 6-{(S)-5-[2-({4-[6-(2-amino-ethoxy)-pyrazin-2-yl]-pyridin-2-ylmethyl}-amino)-ethyl]-2-oxo-oxazolidin-3-yl}-4H-pyrido[3,2-b][1,4]oxazin-3-one] | 2 (≈ 3.95 µM) | 16 (≈ 31.6 µM) | 8 (≈ 15.8 µM) | 4 (≈ 7.9 µM) |
| NCCOc1cncc(-c2ccnc(CNCC[C@H]3CN(c4ccc5c(n4)NC(=O)CO5)C(=O)O3)c2)c1 [Example $159, 6-[(S)-5-(2-{[5-(2-amino-ethoxy)-[3,4′]bipyridinyl-2′-ylmethyl]-amino}-ethyl)-2-oxo-oxazolidin-3-yl]-4H-pyrido[3,2-b][1,4]oxazin-3-one] | 4 (≈ 7.91 µM) | 8 (≈ 15.8 µM) | 16 (≈ 31.6 µM) | 8 (≈ 15.8 µM) |
| NCCOc1nccc(-c2cccc(CNCC[C@H]3CN(c4ccc5c(n4)NC(=O)CO5)C(=O)O3)c2)n1 [Example $160, 6-[(S)-5-(2-{3-[2-(2-amino-ethoxy)-pyrimidin-4-yl]-benzylamino}-ethyl)-2-oxo-oxazolidin-3-yl]-4H-pyrido[3,2-b][1,4]oxazin-3-one] | 1 (≈ 1.98 µM) | 8 (≈ 15.8 µM) | 2 (≈ 3.96 µM) | 4 (≈ 7.91 µM) |
| COc1cc(OCCN)cc(-c2cccc(CNCC[C@H]3CN(c4ccc5c(n4)NC(=O)CO5)C(=O)O3)c2)n1 [Example $161, 6-[(S)-5-(2-{3-[4-(2-amino-ethoxy)-6-methoxy-pyridin-2-yl]-benzylamino}-ethyl)-2-oxo-oxazolidin-3-yl]-4H-pyrido[3,2-b][1,4]oxazin-3-one] | 1 (≈ 1.87 µM) | 1 (≈ 1.87 µM) | 0.5 (≈ 0.935 µM) | 0.5 (≈ 0.935 µM) |
| COc1cc(OCCN)cc(-c2ccnc(CNCC[C@H]3CN(c4ccc5c(n4)NC(=O)CO5)C(=O)O3)c2)n1 [Example $162, 6-[(S)-5-(2-{[4-(2-amino-ethoxy)-6-methoxy-[2,4′]bipyridinyl-2′-ylmethyl]-amino}-ethyl)-2-oxo-oxazolidin-3-yl]-4H-pyrido[3,2-b][1,4]oxazin-3-one] | 1 (≈ 1.87 µM) | 1 (≈ 1.87 µM) | 1 (≈ 1.87 µM) | 1 (≈ 1.87 µM) |
| CNCCOc1cccc(-c2cccc(CNCC[C@H]3CN(c4ccc5c(n4)NC(=O)CO5)C(=O)O3)c2)n1 [Example $163, 6-[(S)-5-(2-{3-[6-(2-methylamino-ethoxy)-pyridin-2-yl]-benzylamino}-ethyl)-2-oxo-oxazolidin-3-yl]-4H-pyrido[3,2-b][1,4]oxazin-3-one] | 0.5 (≈ 0.964 µM) | 2 (≈ 3.86 µM) | 0.5 (≈ 0.964 µM) | 0.5 (≈ 0.964 µM) |
| CNCCOc1cncc(-c2cccc(CNCC[C@H]3CN(c4ccc5c(n4)NC(=O)CO5)C(=O)O3)c2)n1 [Example $164, 6-[(S)-5-(2-{3-[6-(2-methylamino-ethoxy)-pyrazin-2-yl]-benzylamino}-ethyl)-2-oxo-oxazolidin-3-yl]-4H-pyrido[3,2-b][1,4]oxazin-3-one] | 0.5 (≈ 0.962 µM) | 1 (≈ 1.92 µM) | 1 (≈ 1.92 µM) | 0.5 (≈ 0.962 µM) |
| NCCOc1cccc(-c2ccnc(CNCC[C@H]3CN(c4ccc5c(n4)NC(=O)CO5)C(=O)O3)n2)n1 [Example $165, 6-{(S)-5-[2-({4-[6-(2-amino-ethoxy)-pyridin-2-yl]-pyrimidin-2-ylmethyl}-amino)-ethyl]-2-oxo-oxazolidin-3-yl}-4H-pyrido[3,2-b][1,4]oxazin-3-one] | 2 (≈ 3.95 µM) | 4 (≈ 7.9 µM) | 4 (≈ 7.9 µM) | 8 (≈ 15.8 µM) |
| CN1CC[C@@H](Oc2cnnc(-c3cccc(CNCC[C@H]4CN(c5ccc6c(n5)NC(=O)CO6)C(=O)O4)c3)c2)C1 [Example $166, 6-[(S)-5-(2-{3-[5-((R)-1-methyl-pyrrolidin-3-yloxy)-pyridazin-3-yl]-benzylamino}-ethyl)-2-oxo-oxazolidin-3-yl]-4H-pyrido[3,2-b][1,4]oxazin-3-one] | 4 (≈ 7.33 µM) | 4 (≈ 7.33 µM) | 2 (≈ 3.67 µM) | 4 (≈ 7.33 µM) |
| CN1CC[C@H](Oc2cccc(-c3cccc(CNCC[C@H]4CN(c5ccc6c(c5)NC(=O)CS6)C(=O)O4)c3)n2)C1 [Example $167, 6-[(S)-5-(2-{3-[6-((S)-1-methyl-pyrrolidin-3-yloxy)-pyridin-2-yl]-benzylamino}-ethyl)-2-oxo-oxazolidin-3-yl]-4H-benzo[1,4]thiazin-3-one] | 1 (≈ 1.79 µM) | 1 (≈ 1.79 µM) | 1 (≈ 1.79 µM) | 0.25 (≈ 0.447 µM) |
| CN1CC[C@@H](Oc2cccc(-c3cccc(CNCC[C@H]4CN(c5ccc6c(c5)NC(=O)CS6)C(=O)O4)c3)n2)C1 [Example $168, 6-[(S)-5-(2-{3-[6-((R)-1-methyl-pyrrolidin-3-yloxy)-pyridin-2-yl]-benzylamino}-ethyl)-2-oxo-oxazolidin-3-yl]-4H-benzo[1,4]thiazin-3-one] | 2 (≈ 3.57 µM) | 2 (≈ 3.57 µM) | 2 (≈ 3.57 µM) | 1 (≈ 1.79 µM) |
| CN1CC[C@@H](Oc2cccc(-c3cccc(CNCC[C@@H]4CN(c5ccc6c(c5)NC(=O)CS6)C(=O)O4)c3)n2)C1 [Example $169, 6-[(R)-5-(2-{3-[6-((R)-1-methyl-pyrrolidin-3-yloxy)-pyridin-2-yl]-benzylamino}-ethyl)-2-oxo-oxazolidin-3-yl]-4H-benzo[1,4]thiazin-3-one] | 2 (≈ 3.57 µM) | 2 (≈ 3.57 µM) | 1 (≈ 1.79 µM) | 0.25 (≈ 0.447 µM) |
| COc1cc(O[C@H]2CCN(C)C2)cc(-c2cccc(CNCC[C@H]3CN(c4ccc5c(n4)NC(=O)CO5)C(=O)O3)c2)n1 [Example $170, 6-[(S)-5-(2-{3-[6-methoxy-4-((S)-1-methyl-pyrrolidin-3-yloxy)-pyridin-2-yl]-benzylamino}-ethyl)-2-oxo-oxazolidin-3-yl]-4H-pyrido[3,2-b][1,4]oxazin-3-one] | 2 (≈ 3.48 µM) | 4 (≈ 6.96 µM) | 2 (≈ 3.48 µM) | 0.25 (≈ 0.435 µM) |
| CN1CCC[C@@H]1COc1cccc(-c2cccc(CNCC[C@H]3CN(c4ccc5c(n4)NC(=O)CO5)C(=O)O3)c2)n1 [Example $171, 6-[(S)-5-(2-{3-[6-((R)-1-methyl-pyrrolidin-2-ylmethoxy)-pyridin-2-yl]-benzylamino}-ethyl)-2-oxo-oxazolidin-3-yl]-4H-pyrido[3,2-b][1,4]oxazin-3-one] | 1 (≈ 1.79 µM) | 1 (≈ 1.79 µM) | 1 (≈ 1.79 µM) | 0.25 (≈ 0.448 µM) |
| CN1CC(Oc2cnnc(-c3cccc(CNCC[C@H]4CN(c5ccc6c(n5)NC(=O)CO6)C(=O)O4)c3)c2)C1 [Example $174, 6-[(S)-5-(2-{3-[5-(1-methyl-azetidin-3-yloxy)-pyridazin-3-yl]-benzylamino}-ethyl)-2-oxo-oxazolidin-3-yl]-4H-pyrido[3,2-b][1,4]oxazin-3-one] | 2 (≈ 3.76 µM) | 2 (≈ 3.76 µM) | 1 (≈ 1.88 µM) | 2 (≈ 3.76 µM) |
| C[C@H]1C[C@H](Oc2cccc(-c3cccc(CNCC[C@H]4CN(c5ccc6c(n5)NC(=O)CO6)C(=O)O4)c3)n2)CN1C [Example $175, 6-[(S)-5-(2-{3-[6-((3S,5S)-1,5-dimethyl-pyrrolidin-3-yloxy)-pyridin-2-yl]-benzylamino}-ethyl)-2-oxo-oxazolidin-3-yl]-4H-pyrido[3,2-b][1,4]oxazin-3-one] | 4 (≈ 7.16 µM) | 4 (≈ 7.16 µM) | 2 (≈ 3.58 µM) | 0.25 (≈ 0.448 µM) |
| CN1CC(Oc2cncc(-c3cccc(CNCC[C@H]4CN(c5ccc6c(n5)NC(=O)CO6)C(=O)O4)n3)n2)C1 [Example $179, 6-{(S)-5-[2-({6-[6-(1-methyl-azetidin-3-yloxy)-pyrazin-2-yl]-pyridin-2-ylmethyl}-amino)-ethyl]-2-oxo-oxazolidin-3-yl}-4H-pyrido[3,2-b][1,4]oxazin-3-one] | 2 (≈ 3.76 µM) | 1 (≈ 1.88 µM) | 1 (≈ 1.88 µM) | 0.5 (≈ 0.939 µM) |
| O=C1COc2ccc(N3C[C@H](CCNCc4cccc(-c5cc(O[C@@H]6CCNC6)cnn5)c4)OC3=O)nc2N1 [Example $180, 6-[(S)-2-oxo-5-(2-{3-[5-((R)-pyrrolidin-3-yloxy)-pyridazin-3-yl]-benzylamino}-ethyl)-oxazolidin-3-yl]-4H-pyrido[3,2-b][1,4]oxazin-3-one] | 4 (≈ 7.52 µM) | > 16 | 16 (≈ 30.1 µM) | > 16 |
| O=C1COc2ccc(N3C[C@H](CCNCc4cccc(-c5cc(O[C@H]6CCNC6)cnn5)c4)OC3=O)nc2N1 [Example $181, 6-[(S)-2-oxo-5-(2-{3-[5-((S)-pyrrolidin-3-yloxy)-pyridazin-3-yl]-benzylamino}-ethyl)-oxazolidin-3-yl]-4H-pyrido[3,2-b][1,4]oxazin-3-one] | 4 (≈ 7.52 µM) | > 16 | 16 (≈ 30.1 µM) | 16 (≈ 30.1 µM) |
